Measurements published in US11331335B2, “Sepsis treatment and related compositions methods and systems” (CALIFORNIA INSTITUTE OF TECHNOLOGY, priority 2015, dated 2022).

Experiments:
marginal zone B cells = test: Transfer of MZ B cells from PSA treated donors into RAG-/- recipients, then LPS induced sepsis; assay type: in vivo, mouse
Procedure: To further validate this conclusion, experiments were performed to determine whether the function of PSA on MZ B cells could be transplanted into mice that have never been treated with PSA. WT animals were treated i.v. with two doses of PSA and splenic MZ B cells were isolated and subsequently transferred into a RAG^−/− recipients. LPS induced sepsis was then induced in the MZ B cell recipients without any treatment with PSA.
In particular a second set of experiments, WT C57Bl/6 animals were treated i.v. with either PBS or PSA (100 ug) every other day for a total of three days (FIG. 4 Panels C and D). MZ B cells were subsequently sort purified as in the first set of experiments and 8×10^5 MZ B cells were transferred into RAG^−/− recipients. Twenty-four hours later animals received high dose LPS (500 ug). Serum was collected at indicated time points to analyze TNF-α (FIG. 4 Panel E) and survival monitored (FIG. 4 Panel F). * p<0.05 **p<0.005 by a student's t test for all ELISA data and *p<0.05 **p<0.005 using a logrank and Gehan-Wilcoxon test for survival data.
Marginal zone B cells secrete copious amounts of polyreactive IgM. […] Based on this, serum was isolated from RAG^−/− animals that received a MZ B transplant from PSA treated mice and quantitated IgM serum levels.

TNBS colitis = test: TNBS colitis, systemic (spleen) inflammation after PSA; assay type: in vivo, mouse
Procedure: Three models of intestinal inflammation were used: 1) CD4^+CD45Rb^high T cells were purified from the spleens of wild-type or IL-10^−/− donor mice by flow cytometry and transferred into Rag (C57Bl/6) recipients as described. 2) TNBS colitis was induced by pre-sensitization of wild-type (C57Bl/6) mice on the skin with a TNBS/acetone mix. Seven days after sensitization, 2.5% TNBS in ethanol was administered rectally; mice were sacrificed 3-6 days later.
Cytokines from the spleen, colons, or mesenteric lymphonodes (MLNs) were assayed by ELISA, Q-PCR, or flow cytometry. Colitis was assessed with tissue sections (fixed, paraffin embedded, sectioned onto a slide, and stained with hematoxylin and eosin) and was scored by a blinded pathologist (Dr. R. T. Bronson, Harvard Medical School) according to a standard scoring system: 0, no thickening of colonic tissues and no inflammation (infiltration of lymphocytes); 1, mild thickening of tissues but no inflammation; 2, mild thickening of tissues and mild inflammation; 3, severe thickening and severe inflammation. BMDCs were purified from femurs of mice after extraction and washing in PBS. Cells were cultured for 8 days in C-RPMI-10 in the presence of GM-CSF (20 ng/mL; Biosource, Camarillo, Calif.). CD4^+ T cells were purified by negative selection over a magnetic column (Miltenyi or R& D Systems).
The backs of wild-type (C57BL/6) male mice were shaved, and pre-sensitization solution (150 μL; acetone with olive oil in a 4:1 ratio mixed with 5% TNBS in a 4:1 ratio) was slowly applied. […] Mice were analyzed 4-6 days after TNBS administration.
Animals were orally gavaged with vehicle or PSA twenty-four hours prior to being induced with colitis. Five days post-induction CD4+ T cells were isolated from the spleens of indicated animals and analyzed for the inflammatory cytokines TNF-α, IL-17a and IL-6 to determine how systemic inflammation is influenced during intestinal disease.

[1] = test system: endotoxin induced sepsis, Balb/c animals; test: Endotoxin induced sepsis, PSA administered i.v. after LPS; assay type: in vivo, mouse
Procedure: To mimic a clinically significant treatment situation, PSA was administered after inducing endotoxin induced sepsis. Balb/c animals were treated with high doses of LPS (500 ug) i.p. and subsequently treated i.v. with PBS, PSA or PSA was administered 30 minutes post-LPS (see FIG. 2).
Since this is an acute model, where overt inflammation occurs within one hour after induction two timepoints for PSA treatment were tested. In particular, serum was collected 1 and 4 hours post-LPS injection and cytokines TNF-α (FIG. 2 Panel A) and IL-6 (FIG. 2 Panel B) were detected by ELISA.
Each experiment consisted of at least 4 animals in each groups and was repeated twice. * p<0.05 **p<0.005 as measured by a students t test One group received i.v. administration of PSA directly after LPS injection (PSA same) while the second group received PSA thirty minutes post-LPS injection (PSA-post) (FIG. 2).

[2] = test system: endotoxin shock in TLR2−/− mice; test: Endotoxin induced sepsis in TLR2-/- mice; assay type: in vivo, mouse
Procedure: (§1) FIG. 6 Panels C and A show detection of TNF-a in TLR2^−/− or IL-10^−/− mice treated intravenously treated i.v. with PBS or PSA directly following induction of endotoxin shock by intraperitoneal administration of high doses of LPS (500 ug).
(§2) Therefore, to determine whether PSA protection from endotoxin induced sepsis also required these pathways the following experiments were performed.

[3] = test system: cecal-ligation puncture (CLP) model; test: Cecal-ligation puncture (CLP) model of sepsis; assay type: in vivo, mouse; conditions: PSA vs PBS mock treated (about fifty percent succumbed)
From the text: To validate a role for PSA during protection from sepsis, a second, well-established mouse model of sepsis called the cecal-ligation puncture (CLP) model was used. CLP induces colonic spillage of bacteria into the peritoneal cavity, which then enter the bloodstream. Although there are limitations, this model is thought to best mimic a primary cause of human sepsis (polymicrobial infection from the gut).

[4] = test system: LPS sepsis in RAG−/− recipients of B1 or MZ B cells; test: Endotoxin induced sepsis in RAG-/- recipients of sort purified B1 or MZ B cells, treated with PSA; assay type: in vivo, mouse
Procedure: Multiple subsets of B cells exist within the spleen including B1, follicular, and MZ B cell populations. […] Both B1 and MZ B cells can secrete IgM in a T cell independent manner, therefore experiments were performed to determine whether either of these subsets conferred protection from sepsis by PSA. B1 cells and MZ B cells were sort purified and transferred into RAG^−/− animals. Animals were subsequently treated with PSA and induced for disease.
In particular in a first set of experiments, marginal zone B cells (CD19+B220+IgM^hiCD21^hiCD23) were sort purified and transferred into RAG^−/− recipients. Twenty-four hours later these animals were given high dose LPS and serum collected at 1 and 4 hours to assay for TNF-α (FIG. 4 Panel A) and survival was monitored (FIG. 4 Panel B).

[5] = test system: LPS sepsis in RAG−/− mice; test: Endotoxin induced sepsis in RAG-/- mice with or without transfer of T cells, CD4 depleted splenocytes or CD19+ B cells; assay type: in vivo, mouse
Procedure: In particular, the requirement for T and B cells during PSA mediated protection from sepsis was tested.
In a first set of experiments, RAG^−/− animals were treated i.v. with either PBS or PSA 24 hours prior to receiving high dose LPS i.p. Serum was collected from animals at 1 and 4 hours, TNF-α and IL-6 were measured by ELISA (FIG. 3 Panel A) and survival monitored (FIG. 3 Panel B). Two experiments were combined. *p<0.05 **p<0.005 using a logrank and Gehan-Wilcoxon test.
In a second set of experiments, RAG^−/− recipients received either CD4+CD3+ (square) or total T cells (CD3+) (triangle) or CD4 depleted splenocytes (includes CD8+ T cells and CD19+ B cells) (sphere). Twenty-four hours later animals were given LPS. Serum was collected 1 and 4 hours post-LPS to measure cytokines (FIG. 3 Panel C) and survival was monitored (FIG. 3 Panel D).
In a third set of experiments sort purified CD19+ total B cells were purified from the spleen of donor animals and transferred into RAG^−/− recipients and inflammatory cytokines were monitored at 1 and 4 hours (FIG. 3 Panel E) as well as survival (FIG. 3 Panel F). * p<0.05 **p<0.005 by a student's t test for all ELISA data and *p<0.05 **p<0.005 using a logrank and Gehan-Wilcoxon test for survival data. ELISA data is representative from one experiment repeated twice with an n of 4 in each group. Survival data combines multiple experiments.

[6] = test system: LPS sepsis in RAG−/− recipients of sIgM−/− B cells; test: Endotoxin induced sepsis in RAG-/- recipients of B cells from sIgM-/- mice; assay type: in vivo, mouse
From the text: To test whether IgM is the mechanism by which PSA is able to protect from endotoxin induced sepsis total B cells were isolated from the spleen of animals that are unable to make secreted IgM (sIgM^−/−) and transferred these cells into RAG^−/− recipients according to procedure of Example 7.

[7] = test system: endotoxin (lipopolysaccharide; LPS) induced sepsis, Balb/c animals; test: Endotoxic shock model (high dose LPS), PSA given orally or intravenously before induction; assay type: in vivo, mouse
Procedure: In this model, animals are treated intravenously with high doses of endotoxin (lipopolysaccharide; LPS). Administration of LPS leads to the production of massive amounts of inflammatory cytokines such as tumor necrosis factor α (TNF-α) and IL-6 and animals rapidly succumb to death. This model closely resembles the cytokine storm seen in patients suffering from septic shock.
(§3) Five days post-induction CD4+ T cells were isolated from the spleens of the indicated animals. Equal amounts of RNA were used to perform q-RT-PCR on IL6 or TNFa cytokines at 1 and 4 hours post-LPS. (FIG. 1 panel A diagram on the left, and FIG. 1 panel B diagram on the left)
as §3, with “In another set of experiments, Balb/c animals were treated intravenously with PSA 24 hours prior to be induced with TNBS colitis. Five” for “Five”, “right,” for “left,”, “right)” for “left)”
Detection of percent survival of in animals treated intravenously with high doses of endotoxin (lipopolysaccharide; LPS) was performed. Accordingly, Balb/C animals were orally or intravenously treated with PSA or PBS as described in Example 2 and the number of surviving mice counted.

TNF-α or IL-6 production = test: Cytokine induction by PSA administered i.v. alone; conditions: data not shown
[8] = test system: endotoxin shock in IL-10−/− mice; test: Endotoxin induced sepsis in IL-10-/- mice; assay type: in vivo, mouse
Procedure: as §1, §2

[9] = PSA i.v. thirty minutes post-LPS (PSA post)
[10] = PSA i.v. following LPS 500 ug i.p.
[11] = RAG−/− mice reconstituted with CD19+ total B cells, i.v. PSA vs PBS

Substance: polysaccharide A [PSA]
- protection from endotoxin induced sepsis (serum TNF-α, mortality) (marginal zone B cells; RAG−/− recipients of 8×10^5 MZ B cells from donors treated i.v. with PSA (100 ug), recipients not treated with PSA, LPS 500 ug): completely protected from endotoxin induced sepsis
- IgM serum levels during LPS induced sepsis (marginal zone B cells; RAG−/− recipients of MZ B cells from PSA treated animals vs from mock treated mice): high levels of circulating IgM
- inflammatory cytokine expression (TNF-α, IL-17a, IL-6) in splenic CD4+ T cells (TNBS colitis; PSA orally gavaged 24 h prior to colitis induction, five days post-induction, vs colitogenic animals): reduced cytokine expression
- whether PSA influences inflammation within the systemic compartment (colon disease score, survival; FIG. 5 C, D) (TNBS colitis; intravenous PSA 24 h prior to TNBS colitis): supported this conclusion
- splenomegaly in colitic animals (TNBS colitis; orally gavaged PSA): able to prevent
- serum TNF-α and IL-6 levels ([1]; PSA i.v. directly following LPS 500 ug i.p. (PSA same), 1 and 4 hours post-LPS): reduced levels
- survival ([1]; PSA i.v. directly following LPS (PSA same)): high survival rate
- serum TNF-α [1, 9]: lower serum levels
- survival [1, 9]: higher survival rate
- TNFα and IL-6 levels during septic shock ([2]; PSA i.v.): suppressed
- survival [2, 10]: completely protected from death
- survival [3]: significantly increased survival rate
- PSA mediated protection ([4]; RAG−/− recipients of B1b cells, data not shown): did not restore PSA mediated protection
- survival ([4]; RAG−/− recipients of purified MZ B cells, PSA treated): protect animals from sepsis induced death
- serum levels of TNF-α ([4]; RAG−/− recipients of purified MZ B cells, PSA treated, 1 and 4 hours after high dose LPS): suppression of serum levels of TNF-α
- protection from sepsis (serum TNF-α, survival) ([5]; RAG−/− animals (no T and B cells), PSA i.v. 24 hours prior to high dose LPS i.p.): no longer protected animals from sepsis
- serum levels of TNFα [5, 11]: significantly reduced
- survival [5, 11]: survived
- PSA mediated protection from death ([5]; RAG−/− recipients of CD3+ total T cells): unable to restore PSA mediated protection from death
- prevention of death and suppression of systemic inflammation ([5]; RAG−/− recipients of CD4+ T cell depleted splenocytes): restored the ability of PSA to prevent death and suppress systemic inflammation
- PSA mediated protection from death ([5]; RAG−/− recipients of CD4+ sort purified T cells): unable to restore PSA mediated protection from death
- protection from sepsis (serum inflammatory cytokines, death) ([6]; PSA i.v. treated animals vs PBS treated): protected
- protection from sepsis (serum inflammatory cytokines, death) ([6]; RAG−/− animals that received MZ B cells from sIgM−/− mice, PSA i.v.): no longer protected by administration of PSA
- serum inflammatory cytokines (TNF-α, IL-6) ([7]; PSA provided directly within the blood (intravenous), 1 and 4 hours post-LPS, vs mock treated): significantly blocked induction of serum inflammatory cytokines
- serum TNF-α ([7]; animals fed PSA (oral gavage), vs mock treated): slightly elevated
- survival ([7]; intravenous administration of PSA): potently protected animals from death
- overt inflammation on i.v. administration (TNF-α or IL-6 production; PSA i.v. into animals): does not elicit overt inflammation
- TNF-α or IL-6 production induced by PSA on its own (TNF-α or IL-6 production; PSA i.v., no LPS): does not on its own induce
- TNFα and IL-6 levels during septic shock ([8]; PSA i.v.): suppressed
- survival [8, 10]: completely protected from death
